No end group written: not given here.
Columns and labels:
[1] = cited from earlier work
E. coli JW0013 = assay type: cell-based; conditions: for MIC E. coli JW0013: JW0013, 1 h; for MIC in 20% M9 / MIC in 20% MHB / MIC in 60% M9 / MIC in 60% MHB / MIC in 100% M9 / MIC in 100% MHB: JW0013, 6 h
E. coli J2210 = assay type: cell-based; conditions: J2210, 1 h
Salmonella SL1344 = assay type: cell-based, Salmonella enterica serovar Typhimurium; conditions: 1 h
E. coli MC1061 = assay type: cell-based; conditions: MC1061, 1 h
E. coli O157:H7 = assay type: cell-based; conditions: O157:H7, 1 h
E. coli JJ2487 = assay type: cell-based; conditions: JJ2487, 1 h
Salmonella MH91989 = assay type: cell-based, Salmonella enterica serovar Enteritidis; conditions: 1 h

VDKPPYLPRPRPPRrIYNr-NH2 [Onc112]
antimicrobial activity compared to Onc18 [1]: improved

VDKPPYKPRPRPPRRIYNR-NH2 [VDKPPYKPRPRPPRRIYNR-NH2]
MIC E. coli JW0013 (E. coli JW0013): 0.60 ± 0.14 µg/mL
MIC E. coli J2210 (E. coli J2210): 0.30 ± 0.07 µg/mL
MIC Salmonella SL1344 (Salmonella SL1344): 0.60 ± 0.14 µg/mL
MIC E. coli MC1061 (E. coli MC1061): 0.15 ± 0.03 µg/mL
MIC E. coli O157:H7 (E. coli O157:H7): 2.40 ± 0.56 µg/mL
MIC E. coli JJ2487 (E. coli JJ2487): 0.79 ± 0.35 µg/mL
MIC Salmonella MH91989 (Salmonella MH91989): 0.60 ± 0.14 µg/mL

VDKPPYLPRPRPPRRIYNR-NH2 [VDKPPYLPRPRPPRRIYNR-NH2, reference compound]
MIC E. coli JW0013 (E. coli JW0013): 0.83 ± 0.42 µg/mL
MIC in 20% M9 (E. coli JW0013): 0.60 ± 0.14 µg/mL
MIC in 20% MHB (E. coli JW0013): 0.79 ± 0.35 µg/mL
MIC in 60% M9 (E. coli JW0013): 1.20 ± 0.28 µg/mL
MIC in 60% MHB (E. coli JW0013): 1.20 ± 0.28 µg/mL
MIC in 100% M9 (E. coli JW0013): 2.40 ± 0.56 µg/mL
MIC in 100% MHB (E. coli JW0013): 2.40 ± 0.56 µg/mL
MIC E. coli J2210 (E. coli J2210): 0.79 ± 0.35 µg/mL
MIC Salmonella SL1344 (Salmonella SL1344): 0.60 ± 0.14 µg/mL
MIC E. coli MC1061 (E. coli MC1061): 0.30 ± 0.07 µg/mL
MIC E. coli O157:H7 (E. coli O157:H7): 3.14 ± 1.28 µg/mL
MIC E. coli JJ2487 (E. coli JJ2487): 0.60 ± 0.14 µg/mL
MIC Salmonella MH91989 (Salmonella MH91989): 0.60 ± 0.14 µg/mL

VDKPPYLPRPRPPROIYNO-NH2 [Onc72]
antimicrobial activity compared to Onc18 [1]: improved

VDKKPYLPRPRPPRRIYNR-NH2 [VDKKPYLPRPRPPRRIYNR-NH2]
MIC E. coli JW0013 (E. coli JW0013): 0.60 ± 0.14 µg/mL
MIC E. coli J2210 (E. coli J2210): 0.39 ± 0.18 µg/mL
MIC Salmonella SL1344 (Salmonella SL1344): 0.60 ± 0.14 µg/mL
MIC E. coli MC1061 (E. coli MC1061): 0.30 ± 0.07 µg/mL
MIC E. coli O157:H7 (E. coli O157:H7): 2.40 ± 0.56 µg/mL
MIC E. coli JJ2487 (E. coli JJ2487): 0.60 ± 0.14 µg/mL
MIC Salmonella MH91989 (Salmonella MH91989): 0.60 ± 0.14 µg/mL

VDKRPYLPRPRPPRRIYNR-NH2 [VDKRPYLPRPRPPRRIYNR-NH2]
MIC E. coli JW0013 (E. coli JW0013): 0.83 ± 0.42 µg/mL
MIC E. coli J2210 (E. coli J2210): 0.60 ± 0.14 µg/mL
MIC Salmonella SL1344 (Salmonella SL1344): 0.60 ± 0.14 µg/mL
MIC E. coli MC1061 (E. coli MC1061): 0.30 ± 0.07 µg/mL
MIC E. coli O157:H7 (E. coli O157:H7): 2.40 ± 0.56 µg/mL
MIC E. coli JJ2487 (E. coli JJ2487): 0.39 ± 0.18 µg/mL
MIC Salmonella MH91989 (Salmonella MH91989): 0.60 ± 0.14 µg/mL

VDKKPYRPRPRPPRRIYNR-NH2 [VDKKPYRPRPRPPRRIYNR-NH2]
MIC E. coli JW0013 (E. coli JW0013): 0.39 ± 0.18 µg/mL
MIC in 20% M9 (E. coli JW0013): 0.39 ± 0.18 µg/mL
MIC in 20% MHB (E. coli JW0013): 0.20 ± 0.09 µg/mL
MIC in 60% M9 (E. coli JW0013): 1.20 ± 0.28 µg/mL
MIC in 60% MHB (E. coli JW0013): 0.60 ± 0.14 µg/mL
MIC in 100% M9 (E. coli JW0013): 9.60 ± 2.00 µg/mL
MIC in 100% MHB (E. coli JW0013): 2.40 ± 0.56 µg/mL
MIC E. coli J2210 (E. coli J2210): 0.30 ± 0.07 µg/mL
MIC Salmonella SL1344 (Salmonella SL1344): 0.39 ± 0.18 µg/mL
MIC E. coli MC1061 (E. coli MC1061): 0.15 ± 0.03 µg/mL
MIC E. coli O157:H7 (E. coli O157:H7): 1.57 ± 0.68 µg/mL
MIC E. coli JJ2487 (E. coli JJ2487): 0.30 ± 0.07 µg/mL
MIC Salmonella MH91989 (Salmonella MH91989): 0.39 ± 0.18 µg/mL

VDKKPYKPRPRPPRRIYNR-NH2 [VDKKPYKPRPRPPRRIYNR-NH2]
MIC E. coli JW0013 (E. coli JW0013): 0.30 ± 0.07 µg/mL
MIC in 20% M9 (E. coli JW0013): 0.30 ± 0.09 µg/mL
MIC in 20% MHB (E. coli JW0013): 0.20 ± 0.09 µg/mL
MIC in 60% M9 (E. coli JW0013): 1.57 ± 0.68 µg/mL
MIC in 60% MHB (E. coli JW0013): 0.79 ± 0.35 µg/mL
MIC in 100% M9 (E. coli JW0013): 9.60 ± 2.00 µg/mL
MIC in 100% MHB (E. coli JW0013): 2.40 ± 0.56 µg/mL
MIC E. coli J2210 (E. coli J2210): 0.20 ± 0.09 µg/mL
MIC Salmonella SL1344 (Salmonella SL1344): 0.42 ± 0.21 µg/mL
MIC E. coli MC1061 (E. coli MC1061): 0.15 ± 0.03 µg/mL
MIC E. coli O157:H7 (E. coli O157:H7): 1.57 ± 0.68 µg/mL
MIC E. coli JJ2487 (E. coli JJ2487): 0.30 ± 0.07 µg/mL
MIC Salmonella MH91989 (Salmonella MH91989): 0.42 ± 0.21 µg/mL

VDKRPYRPRPRPPRRIYNR-NH2 [VDKRPYRPRPRPPRRIYNR-NH2]
MIC E. coli JW0013 (E. coli JW0013): 0.39 ± 0.18 µg/mL
MIC E. coli J2210 (E. coli J2210): 0.30 ± 0.07 µg/mL
MIC Salmonella SL1344 (Salmonella SL1344): 0.39 ± 0.18 µg/mL
MIC E. coli MC1061 (E. coli MC1061): 0.15 ± 0.03 µg/mL
MIC E. coli O157:H7 (E. coli O157:H7): 1.66 ± 0.82 µg/mL
MIC E. coli JJ2487 (E. coli JJ2487): 0.42 ± 0.21 µg/mL
MIC Salmonella MH91989 (Salmonella MH91989): 0.42 ± 0.21 µg/mL

VDKPPYRPRPRPPRRIYNR-NH2 [VDKPPYRPRPRPPRRIYNR-NH2]
MIC E. coli JW0013 (E. coli JW0013): 0.42 ± 0.21 µg/mL
MIC E. coli J2210 (E. coli J2210): 0.39 ± 0.18 µg/mL
MIC Salmonella SL1344 (Salmonella SL1344): 0.42 ± 0.21 µg/mL
MIC E. coli MC1061 (E. coli MC1061): 0.20 ± 0.09 µg/mL
MIC E. coli O157:H7 (E. coli O157:H7): 2.40 ± 0.56 µg/mL
MIC E. coli JJ2487 (E. coli JJ2487): 0.39 ± 0.18 µg/mL
MIC Salmonella MH91989 (Salmonella MH91989): 0.60 ± 0.14 µg/mL

From PMC6519479 (Molecular systems design & engineering, 2018)
